Our source for the Luciferase activity values is US7838207B2, “Surrogate cell-based system and method for assaying the activity of hepatitis C virus NS3 protease” (Boehringer Ingelheim Canada Ltd., priority 1999, dated 2010).

The subject of the assay is tetracycline transactivator (tTA). The experiment in a line: Tetracycline internal control: luciferase assay in 293 cells co-transfected with chimera G and pUHC13-3 reporter. The format is cell-based. The following applies: in the presence of tetracycline (over 2,000,000 cps in its absence). The source says: Expression of the luciferase reporter gene is controlled by NS3 processing of a tetracycline responsive transcriptional trans-activator. Luciferase assay performed on extracts of 293 cells co-transfected with construct G or H, or the positive control tTA-producing plasmid (pUHD15-1), and the pUHC13-3 plasmid containing the luciferase reporter. Closed and open bars indicate the absence and presence of tetracycline, respectively. Note that construct G produces a tetracycline controlled signal; inactivation of the NS3 protease activity (in construct H) abolishes this signal.
The three families (clones A, D, and G) of HCV-tTA chimeras, and their active site and cleavage site mutant variants, were each co-transfected with the pUHC13-3 reporter into 293 cells to determine the extent of NS3-dependent luciferase expression (FIG. 6). Cells in 35 mm wells were co-transfected with each of the constructs described in FIGS. 2A to 2I and the pUHC13-3 reporter plasmid using the calcium phosphate method. The cells were harvested 48 hours post-transfection and washed twice in phosphate buffered saline. […] An aliquot of 10 μl of supernatant was mixed with 50 μl of the luciferase assay reagent (Promega) in a 96 well plate and the amount of light produced measured using a Digene luminometer or Packard top-count scintillation counter. […]

In the case of `CN(C)[C@@H]1C(O)=C(C(N)=O)C(=O)[C@@]2(O)C(O)=C3C(=O)c4c(O)cccc4[C@@](C)(O)[C@H]3C[C@@H]12` [tetracycline], the Luciferase activity is 40000 cps.
